In patent US20060088579A1, “Transdermal drug delivery systems” (priority 2002, published 2006):
Values joined by “and” are separate entries in the source; they are usually repeats but may differ in a detail not shown here. Equal values may be shown once. Where a name gives a salt, the structure may show the parent alone.

Tests used:
[1] = human, pH 7.4
[2] = Microemulsion phase diagrams, drug load and stability; type: physicochemical; details: O/W ME
Procedure: (i) Microemulsion Phase Diagrams. Four microemulsion (ME) systems were investigated to determine their ternary phase diagrams. All percentages are given as mass ratios.
Each of the three components for a system was titrated until a phase change between microemulsion and two phase mixture was observed. The boundary of this transition was recorded over the entire concentration range. A microemulsion was determined as a miscible, optically clear, stable solution. At the transition to a two phase regime, there is a clear clouding of the mixture as well as an eventual separation of the phases.
(ii) Preparation of Formulations. […] Drug flux was tested through ME system 1 at two selected concentrations, one in the W/O region, and the other in the O/W. The W/O system consisted of H2O:IPM:Tween 80 (10:52:38 w/w) while the O/W system contained H2O:Ethanol:IPM:Tween 80 (27:18:16:39 w/w). Both systems stably incorporated 10% w/w NMP and 10% w/w oleyl alcohol. […] The “water phase” sample consisted of the aqueous elements H2O:Ethanol:NMP (51:31:18) in the same relative proportions as if the organic components were removed.

[3] = LDA chaperoning: lidocaine and NMP flux with 1% LDA in IPM or NMP solvent; type: in vitro ADME, human; details: for NMP Fluxss: NMP solvent
Description: (ii) Preparation of Skin Samples. […] (iii) Transport Experiments. […] J. […] (iv) LDA Chaperoning. […] The LDA's included octadecene, oleyl alcohol, and oleic acid. Similar solutions with NMP as the solvent were also obtained. […] (viii) Quantification of Transport. […] (ix) Calculations. […] D. Results

[4] = IPM/NMP binary vehicle transport, 2% w/v lidocaine free base; type: in vitro ADME, human
Description: (iii) Preparation of Skin Samples. […] (iv) Lidocaine Transport Experiments. […] J. […] (v) IPM/NMP Binary Vehicle Transport. […] (vi) Quantification of Lidocaine. […] (vii) Calculations.

in vitro = details: human, pH 7.4
[5] = H2O/NMP binary vehicle transport
[6] = NMP partitioning between IPM and H2O; type: physicochemical; details: equilibrium mixture of H2O and IPM
Procedure: (vii) NMP Patitioning. Distilled water (2 ml), IPM (2 ml), and NMP (40 μl) were thoroughly vortexed in a glass tube. After equilibrating for 1 hour, the sample was centrifuged at 14,000 rpm for 6 minutes and separated into 2 phases. Samples of each phase were taken to determine NMP concentration by HPLC.
(viii) Quantification of Transport.

[7] = human, 24 h, 2 % w/v, pH 7.4
Procedure: Flux through stripped human skin was compared with flux of the same drugs through distilled water. […] All drug concentrations were analyzed by HPLC.

C[C@]12CC[C@@H]3c4ccc(O)cc4CC[C@H]3[C@@H]1CC[C@@H]2O [Estradiol]
time at which steady state is reached in vitro [1]: about 4 hours

CCCCCCCCCCCCCC(=O)OC(C)C [IPM, isopropyl myristate]
% IPM Uptake (maximum) ([2]; Tween 80/Ethanol ratio 1:1): 47 % (w/w) | % IPM Uptake (maximum) ([2]; Tween 80/Ethanol ratio 1:2): 8.3 % (w/w) | % IPM Uptake (maximum) ([2]; Tween 80/Ethanol ratio 2:1): 42 % (w/w) | % IPM Uptake (maximum) ([2]; Tween 80/Ethanol ratio 2:3): 8.1 % (w/w) | % IPM Uptake (maximum) ([2]; Tween 80/Ethanol ratio 4:1): 4.5 % (w/w) | % IPM Uptake (maximum) ([2]; Tween 80/Ethanol ratio 9:1): 1.6 % (w/w)

CN1CCCC1=O [NMP, n-methyl pyrrolidone]
NMP Fluxss ([3]; 1% w/v isopropyl myristate): 15.8 ± 3.6 mg/cm^2/hr | NMP Fluxss ([3]; 1% w/v octadecene): 15.3 ± 1.2 mg/cm^2/hr | NMP Fluxss ([3]; 1% w/v oleic acid): 17.6 ± 2.0 mg/cm^2/hr | NMP Fluxss ([3]; 1% w/v oleyl alcohol): 20.7 ± 1.0 mg/cm^2/hr | NMP Fluxss ([3]; no LDA): 12.6±0.5 mg/cm^2/hr | flux of NMP through human skin ([3]; approximate value): ~10 mg/cm^2/hr | NMP 24 Hour Transport ([4]; 10% NMP (v/v)): 22.8 ± 3.7 µg | NMP Fluxss ([4]; 10% NMP (v/v)): 1.46 ± 0.9 μg cm^−2 hr^−1 | NMP 24 Hour Transport ([4]; 25% NMP (v/v)): 83.6 ± 5.7 µg | NMP Fluxss ([4]; 25% NMP (v/v)): 5.40 ± 0.49 μg cm^−2 hr^−1 | NMP 24 Hour Transport ([4]; 50% NMP (v/v)): 112 ± 5.3 µg | NMP Fluxss ([4]; 50% NMP (v/v)): 9.01 ± 0.84 μg cm^−2 hr^−1 | NMP 24 Hour Transport ([4]; 60% NMP (v/v)): 134 ± 13 µg | NMP Fluxss ([4]; 60% NMP (v/v)): 11.2 ± 1.2 μg cm^−2 hr^−1 | NMP 24 Hour Transport ([4]; 75% NMP (v/v)): 161 ± 6 µg | NMP Fluxss ([4]; 75% NMP (v/v)): 14.0 ± 0.9 μg cm^−2 hr^−1 | NMP 24 Hour Transport ([4]; 90% NMP (v/v)): 128 ± 1 µg | NMP Fluxss ([4]; 90% NMP (v/v)): 11.7 ± 0.1 μg cm^−2 hr^−1 | NMP 24 Hour Transport ([4]; 100% NMP (v/v)): 115 ± 0.2 µg | NMP Fluxss ([4]; 100% NMP (v/v)): 10.7 ± 0.2 μg cm^−2 hr^−1 | Papp at 24 h, 10 % v/v (in vitro): 0.03 ×10⁻⁶ cm/s | Papp at 24 h, 20 % v/v (in vitro): 0.0178 ×10⁻⁶ cm/s | Papp at 24 h, 40 % v/v (in vitro): 0.0281 ×10⁻⁶ cm/s | Papp at 24 h, 50 % v/v (in vitro): 0.00861 ×10⁻⁶ cm/s | Papp at 24 h, 60 % v/v (in vitro): 0.0758 ×10⁻⁶ cm/s | Papp at 24 h, 80 % v/v (in vitro): 1.74 ×10⁻⁶ cm/s | Papp at 24 h, 90 % v/v (in vitro): 4.36 ×10⁻⁶ cm/s | Papp at 24 h, 100 % v/v (in vitro): 1.75 ×10⁻⁶ cm/s | NMP Fluxss ([5]; 10% NMP): 0.007 ± 0.007 μg/cm^2/hr | NMP Fluxss ([5]; 20% NMP): 0.008 ± 0.003 μg/cm^2/hr | NMP Fluxss ([5]; 40% NMP): 0.026 ± 0.021 μg/cm^2/hr | NMP Fluxss ([5]; 50% NMP): 0.010 ± 0.002 μg/cm^2/hr | NMP Fluxss ([5]; 60% NMP): 0.106 ± 0.058 μg/cm^2/hr | NMP Fluxss ([5]; 80% NMP): 3.26 ± 0.74 μg/cm^2/hr | NMP Fluxss ([5]; 90% NMP): 9.18 ± 0.53 μg/cm^2/hr | NMP Fluxss ([5]; 100% NMP): 12.6 ± 0.5 μg/cm^2/hr | NMP partition in the water phase [6]: 98% | [IPM]/[H2O] partition coefficient of NMP [6]: 0.02±0.001 and 0.02

CCCNC(C)C(=O)Nc1ccccc1C (centres unmarked) [Prilocaine HCl]
Fluxss from H2O [7]: 2.44 ± 0.98 μg/cm^2/hr | Fluxss from H2O/NMP [7]: 6.31 ± 0.14 μg/cm^2/hr
